What was measured:
Rattus norvegicus [1] = species: Rattus norvegicus; assay: DrugMatrix - Regimen: Daily Repeat; assay type: toxicity, organism-based, Sprague-Dawley; set-up: regimen Daily Repeat, gender Male, age 6-8 weeks; conditions: in vivo, po, 1200 mg/kg, […], route oral GAVAGE, dose level High, time 14 day
Rattus norvegicus [2] = species: Rattus norvegicus; assay type: toxicity, organism-based, Sprague-Dawley; conditions: in vivo, po, 24 h, route oral GAVAGE, time 1 day, […]; for MEAN CORPUSCULAR HEMOGLOBIN CONCENTRATION / MEAN CORPUSCULAR VOLUME / ABSOLUTE BASOPHIL / ABSOLUTE EOSINOPHIL / ABSOLUTE LYMPHOCYTE / ABSOLUTE MONOCYTE / BASOPHIL / EOSINOPHIL / ERYTHROCYTE COUNT / HEMATOCRIT / HEMOGLOBIN / LEUKOCYTE COUNT / LYMPHOCYTE / MEAN CORPUSCULAR HEMOGLOBIN / MONOCYTE / NEUTROPHIL / PLATELET COUNT: tissue Blood; for ALANINE AMINOTRANSFERASE / ALBUMIN / ALKALINE PHOSPHATASE / ASPARTATE AMINOTRANSFERASE / BLOOD UREA NITROGEN / CARBON DIOXIDE / CHLORIDE / CHOLESTEROL / CREATINE PHOSPHOKINASE / CREATININE / GLUCOSE / LACTATE DEHYDROGENASE / LIPASE / PHOSPHORUS / POTASSIUM / SODIUM / TOTAL BILIRUBIN / TOTAL PROTEIN / URIC ACID: tissue Plasma
Description: DrugMatrix - Regimen: Single

[3] = 0 mg/kg, vehicle control, dose level Control

SMILES: CC[C@H](C)C(=O)O[C@H]1C[C@H](O)C=C2C=C[C@H](C)[C@H](CC[C@@H](O)C[C@@H](O)CC(=O)O)[C@H]21 [PRAVASTATIN]
- MONOCYTE (Rattus norvegicus [1]; tissue Blood): 6.57%
- NEUTROPHIL (Rattus norvegicus [1]; tissue Blood): 58.53%
- PLATELET COUNT (Rattus norvegicus [1]; tissue Blood): 1135 x10E3/uL
- ALANINE AMINOTRANSFERASE (Rattus norvegicus [1]; tissue Plasma): 669.33 u/L
- ALBUMIN (Rattus norvegicus [1]; tissue Plasma): 3.17 G/DL
- ALKALINE PHOSPHATASE (Rattus norvegicus [1]; tissue Plasma): 461 u/L
- ASPARTATE AMINOTRANSFERASE (Rattus norvegicus [1]; tissue Plasma): 5256.67 u/L
- BLOOD UREA NITROGEN (Rattus norvegicus [1]; tissue Plasma): 60.67 mg/dL
- CARBON DIOXIDE (Rattus norvegicus [1]; tissue Plasma): 33.33 mmol/L
- CHLORIDE (Rattus norvegicus [1]; tissue Plasma): 95.67 MEQ/L
- CHOLESTEROL (Rattus norvegicus [1]; tissue Plasma): 47 mg/dL
- CREATINE PHOSPHOKINASE (Rattus norvegicus [1]; tissue Plasma): 10626.67 u/L
- CREATININE (Rattus norvegicus [1]; tissue Plasma): 0.97 mg/dL
- GLUCOSE (Rattus norvegicus [1]; tissue Plasma): 113.67 mg/dL
- LACTATE DEHYDROGENASE (Rattus norvegicus [1]; tissue Plasma): 1229.67 u/L
- LIPASE (Rattus norvegicus [1]; tissue Plasma): 228.5 u/L
- PHOSPHORUS (Rattus norvegicus [1]; tissue Plasma): 11.03 mg/dL
- POTASSIUM (Rattus norvegicus [1]; tissue Plasma): 6.93 MEQ/L
- SODIUM (Rattus norvegicus [1]; tissue Plasma): 141 MEQ/L
- TOTAL BILIRUBIN (Rattus norvegicus [1]; tissue Plasma): 0.3 mg/dL
- TOTAL PROTEIN (Rattus norvegicus [1]; tissue Plasma): 5.53 G/DL
- URIC ACID (Rattus norvegicus [1]; tissue Plasma): 1.53 mg/dL
- MEAN CORPUSCULAR HEMOGLOBIN CONCENTRATION (Rattus norvegicus [2]; 0 mg/kg, dose level Control): 30.5 G/DL
- MEAN CORPUSCULAR VOLUME (Rattus norvegicus [2]; 0 mg/kg, dose level Control): 67.21 fL
- ABSOLUTE BASOPHIL (Rattus norvegicus [2]; [3]): 50 cells/µL
- ABSOLUTE EOSINOPHIL (Rattus norvegicus [2]; [3]): 32.5 cells/µL
- ABSOLUTE LYMPHOCYTE (Rattus norvegicus [2]; [3]): 7980 cells/µL
- ABSOLUTE MONOCYTE (Rattus norvegicus [2]; [3]): 170 cells/µL
- BASOPHIL (Rattus norvegicus [2]; [3]): 0.58%
- EOSINOPHIL (Rattus norvegicus [2]; [3]): 0.34%
- ERYTHROCYTE COUNT (Rattus norvegicus [2]; [3]): 6.56 x10E6/uL
- HEMATOCRIT (Rattus norvegicus [2]; [3]): 44.14%
- HEMOGLOBIN (Rattus norvegicus [2]; [3]): 13.45 G/DL
- LEUKOCYTE COUNT (Rattus norvegicus [2]; [3]): 9.51 x10E3/uL
- LYMPHOCYTE (Rattus norvegicus [2]; [3]): 83.6%
- MEAN CORPUSCULAR HEMOGLOBIN (Rattus norvegicus [2]; [3]): 20.5 pg
- MONOCYTE (Rattus norvegicus [2]; [3]): 1.86%
- NEUTROPHIL (Rattus norvegicus [2]; [3]): 12.7%
- PLATELET COUNT (Rattus norvegicus [2]; [3]): 1240.38 x10E3/uL
- ALANINE AMINOTRANSFERASE (Rattus norvegicus [2]; [3]): 47.12 u/L
- ALBUMIN (Rattus norvegicus [2]; [3]): 3.59 G/DL
- ALKALINE PHOSPHATASE (Rattus norvegicus [2]; [3]): 461.38 u/L
- ASPARTATE AMINOTRANSFERASE (Rattus norvegicus [2]; [3]): 62.25 u/L
- BLOOD UREA NITROGEN (Rattus norvegicus [2]; [3]): 12.63 mg/dL
- CARBON DIOXIDE (Rattus norvegicus [2]; [3]): 39.5 mmol/L
- CHLORIDE (Rattus norvegicus [2]; [3]): 105.38 MEQ/L
- CHOLESTEROL (Rattus norvegicus [2]; [3]): 74.25 mg/dL
- CREATINE PHOSPHOKINASE (Rattus norvegicus [2]; [3]): 282.88 u/L
- CREATININE (Rattus norvegicus [2]; [3]): 0.61 mg/dL
- GLUCOSE (Rattus norvegicus [2]; [3]): 176.25 mg/dL
- LACTATE DEHYDROGENASE (Rattus norvegicus [2]; [3]): 190.25 u/L
- LIPASE (Rattus norvegicus [2]; [3]): 28 u/L
- PHOSPHORUS (Rattus norvegicus [2]; [3]): 12.68 mg/dL
- POTASSIUM (Rattus norvegicus [2]; [3]): 6.6 MEQ/L
- SODIUM (Rattus norvegicus [2]; [3]): 151.13 MEQ/L
- TOTAL BILIRUBIN (Rattus norvegicus [2]; [3]): 0.34 mg/dL
- TOTAL PROTEIN (Rattus norvegicus [2]; [3]): 6.09 G/DL
- URIC ACID (Rattus norvegicus [2]; [3]): 1.06 mg/dL
- ABSOLUTE BASOPHIL (Rattus norvegicus [2]; 1200 mg/kg, dose level High): 12.5 cells/µL
- ABSOLUTE EOSINOPHIL (Rattus norvegicus [2]; 1200 mg/kg, dose level High): 41.3 cells/µL
- ABSOLUTE LYMPHOCYTE (Rattus norvegicus [2]; 1200 mg/kg, dose level High): 7270 cells/µL
- ABSOLUTE MONOCYTE (Rattus norvegicus [2]; 1200 mg/kg, dose level High): 270 cells/µL
- BASOPHIL (Rattus norvegicus [2]; 1200 mg/kg, dose level High): 0.35%
- EOSINOPHIL (Rattus norvegicus [2]; 1200 mg/kg, dose level High): 0.46%
- ERYTHROCYTE COUNT (Rattus norvegicus [2]; 1200 mg/kg, dose level High): 6.38 x10E6/uL
- HEMATOCRIT (Rattus norvegicus [2]; 1200 mg/kg, dose level High): 42.34%
- HEMOGLOBIN (Rattus norvegicus [2]; 1200 mg/kg, dose level High): 12.95 G/DL
- LEUKOCYTE COUNT (Rattus norvegicus [2]; 1200 mg/kg, dose level High): 9.2 x10E3/uL
- LYMPHOCYTE (Rattus norvegicus [2]; 1200 mg/kg, dose level High): 78.89%
- MEAN CORPUSCULAR HEMOGLOBIN (Rattus norvegicus [2]; 1200 mg/kg, dose level High): 20.29 pg
- MEAN CORPUSCULAR HEMOGLOBIN CONCENTRATION (Rattus norvegicus [2]; 1200 mg/kg, dose level High): 30.55 G/DL
- MEAN CORPUSCULAR VOLUME (Rattus norvegicus [2]; 1200 mg/kg, dose level High): 66.41 fL
- MONOCYTE (Rattus norvegicus [2]; 1200 mg/kg, dose level High): 2.9%
- NEUTROPHIL (Rattus norvegicus [2]; 1200 mg/kg, dose level High): 16.21%
- PLATELET COUNT (Rattus norvegicus [2]; 1200 mg/kg, dose level High): 1234.38 x10E3/uL
- ALANINE AMINOTRANSFERASE (Rattus norvegicus [2]; 1200 mg/kg, dose level High): 73.25 u/L
- ALBUMIN (Rattus norvegicus [2]; 1200 mg/kg, dose level High): 3.64 G/DL
- ALKALINE PHOSPHATASE (Rattus norvegicus [2]; 1200 mg/kg, dose level High): 563.12 u/L
- ASPARTATE AMINOTRANSFERASE (Rattus norvegicus [2]; 1200 mg/kg, dose level High): 74.62 u/L
- BLOOD UREA NITROGEN (Rattus norvegicus [2]; 1200 mg/kg, dose level High): 12.25 mg/dL
- CARBON DIOXIDE (Rattus norvegicus [2]; 1200 mg/kg, dose level High): 36.62 mmol/L
- CHLORIDE (Rattus norvegicus [2]; 1200 mg/kg, dose level High): 108 MEQ/L
- CHOLESTEROL (Rattus norvegicus [2]; 1200 mg/kg, dose level High): 74.87 mg/dL
- CREATINE PHOSPHOKINASE (Rattus norvegicus [2]; 1200 mg/kg, dose level High): 344.5 u/L
- CREATININE (Rattus norvegicus [2]; 1200 mg/kg, dose level High): 0.67 mg/dL
- GLUCOSE (Rattus norvegicus [2]; 1200 mg/kg, dose level High): 193.13 mg/dL
- LACTATE DEHYDROGENASE (Rattus norvegicus [2]; 1200 mg/kg, dose level High): 126.88 u/L
- LIPASE (Rattus norvegicus [2]; 1200 mg/kg, dose level High): 34.88 u/L
- PHOSPHORUS (Rattus norvegicus [2]; 1200 mg/kg, dose level High): 12.5 mg/dL
- POTASSIUM (Rattus norvegicus [2]; 1200 mg/kg, dose level High): 6.55 MEQ/L
- SODIUM (Rattus norvegicus [2]; 1200 mg/kg, dose level High): 153.75 MEQ/L
- TOTAL BILIRUBIN (Rattus norvegicus [2]; 1200 mg/kg, dose level High): 0.27 mg/dL
- TOTAL PROTEIN (Rattus norvegicus [2]; 1200 mg/kg, dose level High): 6.12 G/DL
- URIC ACID (Rattus norvegicus [2]; 1200 mg/kg, dose level High): 1.09 mg/dL

Source: ChEMBL document CHEMBL3885881, “DrugMatrix”
